Reference: paper PMC8235661, “Photoelectric Dye, NK-5962, as a Potential Drug for Preventing Retinal Neurons from Apoptosis: Pharmacokinetic Studies Based on Review of the Evidence” (Life, 2021)
Read-outs that look alike come from different tables or passages of the source.

Legend:
[1] = Solubility assay in JP 1st and 2nd fluid; type: physicochemical
Procedure: The Japanese Pharmacopeia (JP) 1st fluid (pH 1.2) and JP 2nd fluid (pH 6.8) for dissolution testing were used for solubility measurements. The solution of a test compound was prepared by diluting 10 mM NK-5962 in 2 μL DMSO stock solution with 165 μL of JP 1st or 2nd fluid and then mixed at 37 °C for 4 h by rotation at 1000 rpm. After loading the mixed solution into 96-well MultiScreen Filter Plates (product number MSHVN4510, 0.45 μm hydrophilic PVDF membrane; Millipore, Bedford, MA, USA), filtration was performed by centrifugation. The filtrates were mixed with acetonitrile and analyzed by high-performance liquid chromatography-UV detection (HPLC-UV, 254 nm) or by liquid chromatography and tandem mass spectrometry (LC-MS/MS). Solubility was calculated by comparing the peak area of the filtrate mixture with that of a 100 μM standard solution.

[2] = Unbound fraction by equilibrium dialysis, medium containing 10% fetal bovine serum; type: in vitro ADME; conditions: 1 μM, equilibrium dialysis 37 °C 4 h
Procedure: An equilibrium dialysis apparatus, Rapid Equilibrium Dialysis (RED) Device Single-Use Plate with Inserts, 8K MWCO (ThermoFisher Scientific, Waltham, MA, USA), was used to determine the unbound fraction for each compound in human plasma, rat plasma, and medium containing 10% fetal bovine serum (FBS). Plasma or medium was mixed with the test compound (1 μM) and 200 μL aliquots were loaded into the apparatus and dialyzed versus 350 μL of 100 mM phosphate buffer (pH 7.4) at 37 °C for 4 h by rotation at 1000 rpm. The unbound fraction was calculated as the ratio of receiver side (buffer) to donor side (plasma) concentrations.

[3] = In vivo pharmacokinetics, intravenous administration; design: species or system rat
Procedure: Male Sprague Dawley (SD) and Wistar rats (5-week old) were obtained from Charles River Laboratories Japan (Yokohama, Japan) and Japan SLC, Inc. (Hamamatsu, Japan), respectively. All animals were maintained in air-conditioned quarters with room temperatures of 20 ± 2 °C, relative humidity of 50 ± 10%, and an alternating 12 h light/dark cycle. The rats were fed a certified diet MF (Oriental Yeast Co., Tokyo, Japan) and water ad libitum. The studies were conducted in accordance with the guidelines provided by the Animal Care and Use Committee of Osaka University (Identifier DouyakuR01-3-1).
A test compound (NK-5962) solution in 50% DMSO/water was injected intravenously (i.v.) to male SD rats. A test compound suspension in 0.5% methyl cellulose was administered orally (p.o.) to male Wistar rats. The dosage of the test compound was 1 mg/2 mL/kg (i.v.) and 10 or 100 mg/10 mL/kg (p.o.). Blood samples were collected from the jugular vein at 5 and 15 min and 1 h (i.v.) by using pre-heparinized syringe after the intravenous administration or from the caudal vein at 15 and 30 min, 1, 2 and 4 h (p.o.) by using heparinized capillary tube after the oral administration. At 30 min and 2 h (i.v.) or 8 h (p.o.), blood samples were collected from the abdominal aorta under isoflurane anesthesia and the eye balls and the whole brain were excised immediately.
Plasma was prepared by centrifugation of the blood samples. Plasma and tissues were stored at −80 °C. The tissues were homogenized with a four-fold volume of phosphate-buffered saline to obtain a 20% tissue homogenate. Plasma and 20% tissue homogenates were precipitated with 4–20 volumes of acetonitrile/IS and centrifuged at 15,000× g at 4 °C for 10 min. The supernatants were analyzed by liquid chromatography and tandem mass spectrometry (LC-MS/MS). Standard non-compartmental analysis was performed to determine the pharmacokinetic parameters: elimination half-life (t1/2) and area under the concentration time curve from time zero to infinity (AUC∞). The absolute bioavailability (BA) of the oral dose was calculated as AUC∞ (p.o.)/AUC∞ (i.v.).
(§1) Liquid chromatography and tandem mass spectrometry instrument (LC-MS8060) equipped with Shimadzu Nexera series LC system (Shimadzu, Kyoto, Japan) were used. All compounds were analyzed in multi-reaction monitoring mode under electron spray ionization conditions. The analytical column used was a […] C18 MGIII (3 μm × 2.0 mmID × 35 mm; OSAKA SODA, Osaka, Japan) at 50 °C. The gradient mobile phase consisted of 0.1% formic acid in water (mobile phase A) and 0.1% formic acid in acetonitrile (mobile phase B) at a total flow rate of 1 mL/minute. The initial mobile phase composition was 10% B, which was held constant for 0.2 min, increased in a linear fashion to 90% B over 1 min, then held constant for 0.8 min, and then finally brought back to the initial condition of 10% B over 0.01 min and re-equilibrated for 1 min. The transitions (precursor ion > product ion) of NK-5962 and IS (methyl testosterone) are 433.2 > 279.2 and 303.1 > 109.1 (positive), respectively.

[4] = Eye ball concentration after intravitreous injection; type: in vivo, rat; conditions: intravitreous 16 µM (3 µL)
Procedure: The NK-5962 solutions at 16 μM concentration in phosphate-buffered saline and at 39.7 μM concentration in 0.5% methyl cellulose 400 solution (FUJIFILM Wako Chemicals, Osaka, Japan) were prepared as eye drops and topically applied to both eyes of two Wistar rats assigned for each concentration. The eyes were enucleated 30 min after topical application, washed twice in saline, weighed, and frozen for NK-5962 measurement. In parallel, 3 μL of the NK-5962 solution at 16 μM concentration in phosphate-buffered saline was injected into the vitreous of both eyes of 2 Wistar rats. The eyes in each rat were enucleated 5 min and 2 h after the intravitreous injection, washed twice in saline, weighed, and then frozen. Both eyes of one rat served as the negative control. This study was approved by the Animal Care and Use Committee at Okayama University (Identifier OKU-2016267, OKU-2019196).
as §1

[5] = intravenous 1 mg/kg, 0.5 h, single rat, 1 mg/kg
[6] = intravenous 1 mg/kg, 2 h, single rat, 1 mg/kg

CCCCN(CCCC)c1ccc(C=Cc2sc3ccccc3[n+]2CC(=O)O)cc1.[Br-] [NK-5962, 2-[2-[4-(dibutylamino)phenyl]ethenyl]-3-carboxymethylbenzothiazolium bromide]
solubility at 4 h ([1]; JP 1st fluid pH 1.2, 37 °C, read-out: Solubility JP1 (pH 1.2)): 79 µM
Solubility JP2 (pH 6.8) ([1]; JP 2nd fluid pH 6.8, 37 °C, 4 h): low
solubility at 4 h ([1]; JP 2nd fluid pH 6.8, 37 °C, read-out: Solubility JP2 (pH 6.8)): 0.2 µM
Protein-Binding (Non-Binding Ratio) 10% Fetal Bovine Serum [2]: 0.34
Plasma Concentration ([3]; intravenous 1 mg/kg, 0.083 h, single rat, 1 mg/kg): 648 nM
Plasma Concentration ([3]; intravenous 1 mg/kg, 0.25 h, single rat, 1 mg/kg): 342 nM
Eye Ball/ Plasma Ratio [3, 5]: 0.045
Plasma Concentration [3, 5]: 569 nM
concentration at 2 h ([3]; intravenous 1 mg/kg, 0.5 h, single rat, 1 mg/kg, read-out: Eye Ball Concentration): 25.5 nM
Plasma Concentration ([3]; intravenous 1 mg/kg, 1 h, single rat, 1 mg/kg): 34.6 nM
Eye Ball/ Plasma Ratio [3, 6]: 0.16
Plasma Concentration [3, 6]: 22.0 nM
concentration at 2 h ([3]; intravenous 1 mg/kg, 2 h, single rat, 1 mg/kg, read-out: Eye Ball Concentration): 3.42 nM
Kp at 0.5 h ([3]; male, Sprague Dawley, rat, eye ball / plasma, iv, 1 mg/kg, intravenous 1 mg/kg, 0.5 h, single rat, read-out: Eye Ball/ Plasma Ratio): 0.052
Kp at 2 h ([3]; male, Sprague Dawley, rat, eye ball / plasma, iv, 1 mg/kg, intravenous 1 mg/kg, 2 h, single rat, read-out: Eye Ball/ Plasma Ratio): 0.17
concentration at 0.5 h ([3]; male, Sprague Dawley, rat, eye ball, iv, 1 mg/kg, intravenous 1 mg/kg, 0.5 h (30 min), read-out: Mean Eye Ball Concentration): 29.8 nM
concentration at 0.5 h ([3]; male, Sprague Dawley, rat, eye ball, iv, 1 mg/kg, intravenous 1 mg/kg, 0.5 h, single rat, read-out: Eye Ball Concentration): 34.1 nM
concentration at 2 h ([3]; male, Sprague Dawley, rat, eye ball, iv, 1 mg/kg, intravenous 1 mg/kg, 2 h, single rat, read-out: Eye Ball Concentration): 4.16 nM
concentration at 2 h ([3]; male, Sprague Dawley, rat, eye ball, iv, 1 mg/kg, intravenous 1 mg/kg, 2 h, read-out: Mean Eye Ball Concentration): 3.79 nM
concentration at 0.083 h ([3]; male, Sprague Dawley, rat, plasma, iv, 1 mg/kg, intravenous 1 mg/kg, 0.083 h, single rat): 779 nM
concentration at 0.25 h ([3]; male, Sprague Dawley, rat, plasma, iv, 1 mg/kg, intravenous 1 mg/kg, 0.25 h, single rat): 511 nM
concentration at 0.5 h ([3]; male, Sprague Dawley, rat, plasma, iv, 1 mg/kg, intravenous 1 mg/kg, 0.5 h, single rat, read-out: Plasma Concentration): 661 nM
concentration at 1 h ([3]; male, Sprague Dawley, rat, plasma, iv, 1 mg/kg, intravenous 1 mg/kg, 1 h, single rat): 49.9 nM
concentration at 2 h ([3]; male, Sprague Dawley, rat, plasma, iv, 1 mg/kg, intravenous 1 mg/kg, 2 h, single rat, read-out: Plasma Concentration): 24.3 nM
half-life ([3]; male, Sprague Dawley, rat, plasma, intravenous 1 mg/kg body weight, rats): 21 min
concentration at 0.083 h ([4]; Wistar, rat, eye ball, other: intravitreous injection, 0.083 h (5 min), read-out: Mean Eye Ball Concentration): 7.25 nM
concentration at 0.083 h ([4]; Wistar, rat, eye ball, other: intravitreous injection, 0.083 h, single eye, read-out: Eye Ball Concentration): 9.23 nM
concentration at 2 h ([4]; Wistar, rat, eye ball, other: intravitreous injection, 2 h, single eye, read-out: Eye Ball Concentration): 1.19 nM
concentration at 2 h ([4]; Wistar, rat, eye ball, other: intravitreous injection, 2 h, read-out: Mean Eye Ball Concentration): 1.49 nM
concentration at 2 h ([4]; 0.083 h, single eye, read-out: Eye Ball Concentration): 5.27 nM
concentration at 2 h ([4]; 2 h, single eye, read-out: Eye Ball Concentration): 1.78 nM
